Key:
rape = assay: Postemergent control of plant species; format: in vivo, Brassica napus; conditions: Brassica napus, post-emergence, 336 h, read-out: percent postemergent control
Procedure: (§1) In representative operations, each compound to be utilized in a series of tests is dissolved in acetone to one-half of the final volume (twice the final concentration) to be used and the acetone solution in each case is admixed with an equal volume of water containing 0.1 percent by weight of surface active material. The compositions, generally in the nature of an emulsion, were employed to spray separate respective plant species which had been grown to a 2-4 leaf stage in soil of good nutrient content in a greenhouse. The various beds were positioned side by side and exposed to substantially identical conditions of temperature and light. Each bed was maintained so as to prevent any interaction with test compounds in different seed beds. Other plants were left untreated to serve as controls. After treatment, the plants were maintained for about two weeks under greenhouse conditions conducive for good plant growth and watered as necessary. Control refers to the reduction in growth compared to the observed results of the same untreated species.

velvetleaf = assay: Postemergent control of plant species; format: in vivo, Abutilon theophrasti; conditions: Abutilon theophrasti, post-emergence, 336 h, read-out: percent postemergent control
Procedure: as §1

[1] = system: nitrification of ammonium nitrogen; assay: Suppression of nitrification of ammonium nitrogen in soil; conditions: 27° C.
Outline: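 Value is % NH4-N remaining after a two-week, 27° C incubation of treated soil held at 1/3 bar tension moisture. Nitrate was measured with an ion-selective electrode after extraction with ammonium sulfate solution and 10 min shaking.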

rice [2] = assay: Postemergent control of plant species; format: in vivo, Oryza sativa; conditions: Oryza sativa, post-emergence, 336 h, read-out: percent postemergent control
Procedure: as §1

crabgrass = assay: Postemergent control of plant species; format: in vivo, Digitaria spp.; conditions: Digitaria sanguinalis, post-emergence, 336 h, read-out: percent postemergent control
Procedure: as §1

pigweed = assay: Postemergent control of plant species; format: in vivo, Amaranthus spp.; conditions: Amaranthus retroflexus, post-emergence, 336 h, read-out: percent postemergent control
Procedure: as §1

wild oats = assay: Postemergent control of plant species; format: in vivo, Avena fatua; conditions: Avena fatua, post-emergence, 336 h, read-out: percent postemergent control
Procedure: as §1

barnyardgrass [3] = assay: Postemergent control of plant species; format: in vivo, Echinochloa crusgalli; conditions: Echinochloa crus-galli, post-emergence, 336 h, read-out: percent postemergent control
Procedure: as §1

annual morning glory = assay: Postemergent control of plant species; format: in vivo, Ipomoea spp.; conditions: Ipomoea, post-emergence, 336 h, read-out: percent postemergent control
Procedure: as §1

yellow foxtail = assay: Postemergent control of plant species; format: in vivo, Setaria lutescens; conditions: Setaria, post-emergence, 336 h, read-out: percent postemergent control
Procedure: as §1

yellow nutsedge [4] = assay: Postemergent control of plant species; format: in vivo, Cyperus esculentus; conditions: Cyperus, post-emergence, 336 h, read-out: percent postemergent control
Procedure: as §1

cocklebur = assay: Postemergent control of plant species; format: in vivo, Xanthium spp.; conditions: Xanthium strumarium, post-emergence, 336 h, read-out: percent postemergent control
Procedure: as §1

soybean = assay: Postemergent control of plant species; format: in vivo, Glycine max.; conditions: Glycine max, post-emergence, 336 h, read-out: percent postemergent control
Procedure: as §1

cotton = assay: Postemergent control of plant species; format: in vivo, Gossypium spp.; conditions: Gossypium hirsutum, post-emergence, 336 h, read-out: percent postemergent control
Procedure: as §1

jimsonweed = assay: Postemergent control of plant species; format: in vivo, Datura stramonium; conditions: Datura stramonium, post-emergence, 336 h, read-out: percent postemergent control
Procedure: as §1

johnson grass = assay: Postemergent control of plant species; format: in vivo, Sorghum halepense; conditions: Sorghum halepense, post-emergence, 336 h, read-out: percent postemergent control
Procedure: as §1

sorghum = assay: Postemergent control of plant species; format: in vivo, Sorghum vulgare; conditions: Sorghum, post-emergence, 336 h, read-out: percent postemergent control
Procedure: as §1

corn = assay: Postemergent control of plant species; format: in vivo, Zea mays; conditions: Zea mays, post-emergence, 336 h, read-out: percent postemergent control
Procedure: as §1

sugar beet = assay: Postemergent control of plant species; format: in vivo, Beta saccharifera; conditions: Beta vulgaris, post-emergence, 336 h, read-out: percent postemergent control
Procedure: as §1

wheat = assay: Postemergent control of plant species; format: in vivo, Triticum aestivum; conditions: Triticum aestivum, post-emergence, 336 h, read-out: percent postemergent control
Procedure: as §1

rice [5] = assay: Control of aquatic plant species (paddy water); format: in vivo, Oryza sativa; conditions: Oryza sativa, 216 h, nine days, read-out: Percent control
Procedure: (§2) In testing for such utility, the plant species to be tested were transplanted into 16 oz. containers into about 2 inches of soil when they were in the 1-2 inch stage and then flooded to a depth of about 1 inch. An acetone concentrate of the chemical to be tested was then injected into the paddy water, the volume injected being varied as desired to provide the desired concentration. Percent control was evaluated nine days after application.

barnyardgrass [6] = assay: Control of aquatic plant species (paddy water); format: in vivo, Echinochloa crusgalli; conditions: Echinochloa crus-galli, 216 h, nine days, read-out: Percent control
Procedure: as §2

yellow nutsedge [7] = assay: Control of aquatic plant species (paddy water); format: in vivo, Cyperus esculentus; conditions: Cyperus, 216 h, nine days, read-out: Percent control
Procedure: as §2

sprangletop = assay: Control of aquatic plant species (paddy water); format: in vivo, Leptochloa filiformis; conditions: Leptochloa filiformis, 216 h, nine days, read-out: Percent control
Procedure: as §2

| SMILES | plant injury at 500 ppm (rape) [%] | pest or weed control at 500 ppm (velvetleaf) [%] | % NH4-N Remaining After 2 Weeks Incubation ([1]; 0.01 ppm) [%] | % NH4-N Remaining After 2 Weeks Incubation ([1]; 0.1 ppm) [%] | % NH4-N Remaining After 2 Weeks Incubation ([1]; 1 ppm) [%] | % NH4-N Remaining After 2 Weeks Incubation ([1]; 10 ppm) [%] | plant injury at 500 ppm (rice [2]) [%] | pest or weed control at 500 ppm (crabgrass) [%] | pest or weed control at 500 ppm (wild oats) [%] | pest or weed control at 500 ppm (barnyardgrass [3]) [%] | pest or weed control at 500 ppm (annual morning glory) [%] | pest or weed control at 500 ppm (yellow foxtail) [%] | pest or weed control at 500 ppm (yellow nutsedge [4]) [%] | pest or weed control at 500 ppm (cocklebur) [%] | plant injury at 500 ppm (soybean) [%] | pest or weed control at 500 ppm (jimsonweed) [%] | pest or weed control at 500 ppm (johnson grass) [%] | plant injury at 500 ppm (sorghum) [%] | plant injury at 500 ppm (corn) [%] | plant injury at 500 ppm (sugar beet) [%] | further results |
| --- | --- | --- | --- | --- | --- | --- | --- | --- | --- | --- | --- | --- | --- | --- | --- | --- | --- | --- | --- | --- | --- |
| Cc1cc(C)n2nc(S(=O)(=O)Nc3c(Cl)cc(Cl)cc3Cl)nc2n1 [Compound 35, 5,7-dimethyl-N-(2,4,6-trichlorophynyl)-1,2,4-trizaolo[1,5-a]pyrimidine-2-sulfonamide] | 70 | 0 | 0 | 3 | 50 | 78 | 0 | 0 | 0 | 0 | 40 | 0 | 0 | 95 | 70 | 30 | 0 | 20 | 0 | 80 | pest or weed control at 500 ppm (pigweed): 90%; plant injury at 500 ppm (cotton): 0% |
| Cc1ccc(NS(=O)(=O)c2nc3nc(C)cc(C)n3n2)c(Cl)c1 [Compound 48] | 75 | 40 | 0 | 3 | 56 | 93 | 0 | 0 | 0 | 0 | 60 | 0 | 0 | 70 | 55 | 30 | 0 | 0 | 0 | 70 | plant injury at 500 ppm (wheat): 0%; plant injury at 500 ppm (cotton): 10% |
| Cc1ccn2nc(S(=O)(=O)N(C(=O)N(C)C)c3c(Cl)cccc3Cl)nc2n1 [Compound 273] | 100 | 50 |  |  |  |  | 20 | 100 | 0 | 20 | 80 | 75 | 40 | 40 | 40 | 100 | 30 | 40 | 0 | 100 | plant injury at 500 ppm (wheat): 0%; pest or weed control at 500 ppm (pigweed): 100% |
| Cc1cc(C)n2nc(S(=O)(=O)Nc3ccccc3S(C)(=O)=O)nc2n1 [Compound 45] | 70 | 50 | 0 | 3 | 45 | 94 | 50 | 0 | 0 | 0 | 10 | 0 | 0 | 25 | 60 | 0 | 0 | 0 | 0 | 70 | plant injury at 500 ppm (wheat): 0%; plant injury at 500 ppm (cotton): 0% |
| Cc1cc(C)n2nc(S(=O)(=O)Nc3ccccc3C)nc2n1 [Compound 2] |  |  | 0 | 0 | 39 | 78 |  |  |  |  |  |  |  |  |  |  |  |  |  |  | pest or weed control at 2000 g/ha (rice [5]; 2.0 Kg/Ha): 97%; pest or weed control at 2000 g/ha (barnyardgrass [6]; 2.0 Kg/Ha): 97%; pest or weed control at 2000 g/ha (yellow nutsedge [7]; 2.0 Kg/Ha): 93%; pest or weed control at 2000 g/ha (sprangletop; 2.0 Kg/Ha): 99% |
| Cc1cc(C)n2nc(S(=O)(=O)Nc3c(Br)cccc3Br)nc2n1 [Compound 38] |  |  | 46 | 68 | 84 | 94 |  |  |  |  |  |  |  |  |  |  |  |  |  |  | pest or weed control at 31 g/ha (rice [5]; 0.031 Kg/Ha): 0%; pest or weed control at 250 g/ha (rice [5]; 0.25 Kg/Ha): 97%; pest or weed control at 31 g/ha (barnyardgrass [6]; 0.031 Kg/Ha): 80%; pest or weed control at 250 g/ha (barnyardgrass [6]; 0.25 Kg/Ha): 99%; pest or weed control at 31 g/ha (yellow nutsedge [7]; 0.031 Kg/Ha): 95%; pest or weed control at 250 g/ha (yellow nutsedge [7]; 0.25 Kg/Ha): 97%; pest or weed control at 31 g/ha (sprangletop; 0.031 Kg/Ha): 0%; pest or weed control at 250 g/ha (sprangletop; 0.25 Kg/Ha): 85% |
| O=S(=O)(Nc1ccccc1C(F)(F)F)c1nc2ncc(Cl)cn2n1 [Compound 118] | 80 | 80 |  |  | 61 |  | 0 | 60 | 0 | 0 | 70 | 20 | 70 | 100 | 0 | 100 | 0 | 0 | 0 | 100 | % NH4-N Remaining After 2 Weeks Incubation ([1]; 0.06 ppm): 30%; % NH4-N Remaining After 2 Weeks Incubation ([1]; 0.25 ppm): 37%; % NH4-N Remaining After 2 Weeks Incubation ([1]; 4 ppm): 85%; pest or weed control at 500 ppm (pigweed): 70%; plant injury at 500 ppm (cotton): 0% |
| Cc1cc(C)n2nc(S(=O)(=O)Nc3c(F)cccc3Cl)nc2n1 [Compound 54] |  |  |  |  | 66 |  |  |  |  |  |  |  |  |  |  |  |  |  |  |  | pest or weed control at 500 g/ha (rice [5]; 0.5 Kg/Ha): 97%; % NH4-N Remaining After 2 Weeks Incubation ([1]; 0.06 ppm): 20%; % NH4-N Remaining After 2 Weeks Incubation ([1]; 0.25 ppm): 51%; % NH4-N Remaining After 2 Weeks Incubation ([1]; 4 ppm): 76%; pest or weed control at 500 g/ha (barnyardgrass [6]; 0.5 Kg/Ha): 97%; pest or weed control at 500 g/ha (yellow nutsedge [7]; 0.5 Kg/Ha): 95%; pest or weed control at 500 g/ha (sprangletop; 0.5 Kg/Ha): 0% |
